Experimental data: US20040186022A1, “Enhanced herbicides” (priority 1999, published 2004)

Columns and labels:
plants [1] = experiment: Herbicidal activity: comparison of caprylic, pelargonic and an equimolar mixture of caprylic and pelargonic acids; type: in vivo
Source text: The herbicides were applied in the “spray to drip” amount or at a calibrated 20-60 gallons/acre. “Spray to drip” is an uncalibrated application of fluid to foliage, where sufficient spray volume is used to sufficiently saturate the foliage surface until excess fluid begins to drip from the foliage. In general, about 5 to 200 gallons/acre, preferably 20-100 gallons/acre can be effective.

[2] = test system: black beans (dry bean variety T39); experiment: Synergistic interactions of succinic acid and di-ammonium succinate with other herbicidal compounds, dry beans (black); type: in vivo; settings: for Injury rating, average per plot: scale 1-5
Source text: (§1) The herbicides were applied in the “spray to drip” amount or at a calibrated 20-60 gallons/acre. “Spray to drip” is an uncalibrated application of fluid to foliage, where sufficient spray volume is used to sufficiently saturate the foliage surface until excess fluid begins to drip from the foliage.

[3] = test system: 60 G/a: black nightshade, redroot pigweed, foxtail, lambsquarter and snapbeans; spray to drip: redroot pigweed, velvetleaf, nutsedge and foxtail; experiment: Efficacy of 3% caprylic with succinic or ammonium succinate in an emulsification system (Emsorb 6900); type: in vivo
Source text: as §1

[4] = test system: 60 G/a: velvetleaf, black nightshade, redroot pigweed, foxtail and snapbeans; spray to drip: black nightshade, velvetleaf, foxtail and snapbeans; experiment: Efficacy of 1.5% succinic acid with oleic, caprylic or pelargonic acid in an emulsification system (Emsorb 6900); type: in vivo; parameters: Injury rating, total score for 2 evaluation, Spray to drip / Injury rating, total score for 2 evaluation, Total Rating: scale not given here
Source text: as §1

[5] = test system: navy dry beans (navy Vista); experiment: Synergistic interactions of succinic acid and di-ammonium succinate with herbicidal compounds, navy dry beans; type: in vivo, dry bean (navy); settings: for Injury rating, average per plot: scale 1-5
Source text: as §1

[6] = test system: 40 G/a: crab grass, pigweed, chick weed and foxtail; 60 G/a: pigweed, Kentucky bluegrass, foxtail, crab grass and barnyard grass; spray to drip: Kentucky …; experiment: Herbicidal activities: synergy between succinic acid and pelargonic acid; type: in vivo; parameters: Total injury ratings, 60 G/a / Total injury ratings, Spray to drip / Total injury ratings, Total: scale not given here; settings: for Total injury ratings, Total / Total injury ratings, 40 G/a: 40 G/a; for Total injury ratings, Total: 60 G/a and spray to drip; for Total injury ratings, 40 G/a: 9 pots/treatment, rating 1-5 per pot, 1.125% Emsorb 6900; for Total injury ratings, 60 G/a: 10 pots/treatment; for Total injury ratings, Spray to drip: 7 pots/treatment
Source text: as §1

[7] = test system: 40 G/a: crab grass, chickweed and common lambsquarter; 60 G/a: redtop, pigweed, foxtail; spray to drip: barnyard grass, foxtail, sudan grass and nutsedge; experiment: Herbicidal combinations of caprylic/capric (c/c) or pelargonic acid with equimolar succinic acid and ammonium succinate, on weed varieties; type: in vivo
plants [8] = experiment: Herbicidal enhancement of pelargonic by succinic acid and diammonium succinate; type: in vivo
Source text: as §1

[9] = test system: 60 G/a: lambsquarter, pigweed and velvetleaf; spray to drip: lambsquarter and foxtail; experiment: Herbicidal activity of caproic acid with succinic acid and sodium salicylate; type: in vivo; settings: for Total Injury ratings, Total score: 60 G/a plus spray to drip; for Total injury ratings, 60 G/a: 4 pots/treatment, lambsquarter, pigweed and velvetleaf, rating 1-5 per pot; for Total injury ratings, Spray to drip: 2 pots/treatment, lambsquarter and foxtail
Source text: as §1

[10] = Measurement of pH values for test desiccants (Example 55); type: physicochemical
[11] = Measurement of pH values for test desiccants (Example 56); type: physicochemical
soybeans [12] = experiment: Synergy comparisons of various organic acids with caprylic acid, testing soybeans; type: in vivo; settings: 3 days after a single foliar application, average of 2 sites, soybean Stine 2250
Source text: as §1

plants [13] = experiment: Synergistic relationship between succinic acid and caprylic/capric acids C/C, herbicidal activity; type: in vivo; settings: for Injury ratings, Total: 40 G/a + 60 G/a; for Injury ratings based on 2 independent evaluations, 40 G/a: 40 G/acre: Canadian thistle, velvet leaf; for Injury ratings based on 2 independent evaluations, 40 G/a / Injury ratings based on 2 independent evaluations, 60 G/a: Johnson grass and giant foxtail, each pot rated 1 to 5; for Injury ratings based on 2 independent evaluations, 60 G/a: 60 G/acre: velvetleaf; for Average rating per pot: rating 1 to 5, 5 = complete desiccation of all plants
Source text: as §1

soybeans [14] = experiment: Synergistic relationships: succinic acid + caprylic acid, succinic acid + sodium salicylate, testing soybeans; type: in vivo; settings: 3 days after a single foliar application, soybean Stine 2250; for Overall Effect: 5 equals profound desiccation
Source text: as §1

[15] = test system: chickweed, redtop, velvetleaf, crabgrass and green foxtail; experiment: Enhancement of herbicidal activity of caprylic/capric acids (c/c) using selected compounds at equimolar amounts; type: in vivo
Source text: as §1

[16] = test system: 60 G/a: redroot pigweed, foxtail and velvetleaf; spray to drip: foxtail, dry beans and pigweed; experiment: Herbicidal activity: caprylic acid and succinic acid +/- ammonium sulfate; type: in vivo
Source text: as §1

Potato, variety Katahdin = experiment: Potato field trial: 2 applications of selected herbicides, including Desiccate II; type: in vivo; settings: scale 1-5
Source text: as §1

[17] = rating 1 to 5, 5 = complete desiccation of all plants
[18] = Day 2, one application at 40 G/acre, treatments 1-4, 9-11 in Emsorb 6900/mineral oil/Hasten, 5-8, 12-14 in 0.3% Sylgard 309
[19] = 60 G/a, rating 1-5 per pot, 1% Emsorb, 0.3% Hasten
[20] = Day 1, one application at 40 G/acre, treatments 1-4, 9-11 in Emsorb 6900/mineral oil/Hasten, 5-8, 12-14 in 0.3% Sylgard 309

CCCCCCCC(=O)O [3% caprylic, caprylic acid]
Injury ratings based on 2 independent evaluations, 40 G/acre (plants [1]; 40 G/acre: chickweed, redroot pigweed, lambsquarter and green foxtail, each pot rated 1 to 5): 40.8
Injury ratings based on 2 independent evaluations, 60 G/acre (plants [1]; 60 G/acre: chickweed, redroot pigweed, lambsquarter, green foxtail, crabgrass and wheat, each pot rated 1 to 5): 51.6
Average rating per pot (plants [1]; [17]): 4.16
Injury rating, average per plot [2, 18]: 4
% desiccation (Day 12), foliage [2]: 80%
% desiccation (Day 12), pods [2]: 95%
% desiccation (Day 12), vines [2]: 92%
Injury rating, average per plot ([2]; Day 12): 4.73
Injury rating, total score for 2 evaluations, Total Rating ([3]; 60 G/a plus spray to drip): 178.4
Injury rating, total score for 2 evaluations, 60 G/a [3, 19]: 142
Average rating per pot ([3]; scale 1-5): 4.05
Injury rating, total score for 2 evaluations, Spray to drip ([3]; spray to drip): 36.6
Injury rating, total score for 2 evaluation, Total Rating ([4]; 60 G/a plus spray to drip): 123.5
Injury rating, total score for 2 evaluation, 60 G/a [4, 19]: 88.1
Average rating per pot ([4]; scale 1-5): 4.41
Injury rating, total score for 2 evaluation, Spray to drip ([4]; spray to drip): 35.4
Injury rating, average per plot [5, 20]: 3.5
Injury rating, average per plot ([5]; Day 2): 3.93
Injury rating, average per plot ([5]; Day 3): 3.93
Injury rating, average per plot ([5]; Day 4): 4
% desiccation (Day 12), foliage [5]: 50%
% desiccation (Day 12), pods [5]: 80%
% desiccation (Day 12), vines [5]: 10%
Injury rating, average per plot ([5]; Day 12): 4.2

CCCCCCCCC(=O)O [4% pelargonic acid, pelargonic acid]
Total injury ratings, Total [6]: 153.4
Total injury ratings, 40 G/a [6]: 41.6
Total injury ratings, 60 G/a [6]: 45.6
Total injury ratings, Spray to drip [6]: 66.2

CCCCCCCCC(=O)O [3% pelargonic acid, pelargonic acid]
Total injury ratings, Total ([7]; 40 G/a, 60 G/a and spray to drip): 185.8
Total injury ratings, 40 G/a ([7]; 40 G/a, 10 pots/treatment, two evaluations, rating 1-5 per pot, 1% Emsorb 6900): 87.7
Total injury ratings, 60 G/a ([7]; 60 G/a, 7 pots/treatment, two evaluations): 60.8
Average rating/pot ([7]; scale 1-5): 4.42
Total injury ratings, Spray to drip ([7]; spray to drip, 8 pots/treatment, one evaluation): 37.3

CCCCCCCCC(=O)O [2.5% pelargonic]
Injury ratings based on 2 independent evaluations, 40 G/a (plants [8]; 40 G/a: lambsquarter, velvetleaf and green foxtail, each pot rated 1 to 5): 79.2
Injury ratings based on 2 independent evaluations, 60 G/a (plants [8]; 60 G/a: pigweed, chickweed, crabgrass, green foxtail, velvetleaf, lambsquarter and wheat, each pot rated 1 to 5): 102.2
Injury ratings based on 2 independent evaluations, Spray to drip (plants [8]; Spray to drip: nutsedge, velvetleaf, green foxtail, giant foxtail and barnyard grass, each pot rated 1 to 5): 53.8
Average rating per pot (plants [8]; [17]): 4.36

CCCCCC(=O)O [2% caproic, caproic acid]
Total Injury ratings, Total score [9]: 18.5
Total injury ratings, 60 G/a [9]: 11.2
Total injury ratings, Spray to drip [9]: 7.3

O=C(O)C(O)C(O)C(=O)O [L-Tartaric Acid (0.5%)]
pH Value [10]: 1.52
pH Value [11]: 1.72
Foliage Affected (%) (soybeans [12]): 0%
Overall Effect (soybeans [12]; 5 equals profound desiccation): 0

O=C([O-])c1ccccc1O.[Na+] [Sodium Salicylate (0.5%)]
pH Value [11]: 4.48

O=C([O-])c1ccccc1O.[Na+] [0.5% sodium salicylate]
Injury ratings, Total (plants [13]): 1.5
Injury ratings based on 2 independent evaluations, 40 G/a (plants [13]): 1
Injury ratings based on 2 independent evaluations, 60 G/a (plants [13]): 0.5
Average rating per pot (plants [13]): 0.04

NCCC(=O)O [Beta-Alanine (0.5%)]
pH Value [11]: 6.65

O=C(O)CCC(=O)O [succinic acid (1%), succinic acid]
Foliage Affected (%) (soybeans [14]): 0%
Overall Effect (soybeans [14]): 0
Relative injury ratings, Day #2 ([15]; Day 2 after treatment, 40 G/acre, 8 pots, rating 1-5 per pot, […] Emsorb 6900, […] mineral oil): 0
Relative injury ratings, Day #4 ([15]; Day 4 after treatment): 0
Relative injury ratings, Day #5 ([15]; Day 5 after treatment): 0
Average rating per pot ([15]; scale 1-5): 0

CCCCCC(=O)O [3% caproic, caproic acid]
Total Injury ratings, Total score [9]: 20.9
Total injury ratings, 60 G/a [9]: 13.9
Total injury ratings, Spray to drip [9]: 7

O=C(O)CCC(=O)O [0.5% succinic acid, succinic acid]
Total injury ratings, Total [6]: 0
Total injury ratings, 40 G/a [6]: 0
Total injury ratings, 60 G/a [6]: 0
Total injury ratings, Spray to drip [6]: 0
Injury ratings, Total (plants [13]): 0
Injury ratings based on 2 independent evaluations, 40 G/a (plants [13]): 0
Injury ratings based on 2 independent evaluations, 60 G/a (plants [13]): 0
Average rating per pot (plants [13]): 0
Injury rating, average per plot [2, 18]: 0
% desiccation (Day 12), foliage [2]: 0%
% desiccation (Day 12), pods [2]: 0%
% desiccation (Day 12), vines [2]: 0%
Injury rating, average per plot ([2]; Day 12): 0
Injury rating, average per plot [5, 20]: 0
Injury rating, average per plot ([5]; Day 2): 0
Injury rating, average per plot ([5]; Day 3): 0
Injury rating, average per plot ([5]; Day 4): 0
% desiccation (Day 12), foliage [5]: 0%
% desiccation (Day 12), pods [5]: 0%
% desiccation (Day 12), vines [5]: 0%
Injury rating, average per plot ([5]; Day 12): 0

CCCCCCCC(=O)O [4% caprylic acid, caprylic acid]
Total Injury ratings, combined, for two separate evaluations, Total Rating ([16]; 60 G/a plus spray to drip): 116.8
Total Injury ratings, combined, for two separate evaluations, 60 G/a ([16]; 60 G/a, 7 pots/treatment, rating 1-5 per pot, 1% Emsorb 6900): 60.7
Average rating/pot ([16]; scale 1-5): 4.49
Total Injury ratings, combined, for two separate evaluations, Spray to drip ([16]; spray to drip, 6 pots/treatment): 56.1

CCCCCCCCC(=O)O [5% pelargonic, pelargonic acid]
Injury rating, average per plot (Potato, variety Katahdin; Day 1, 40-42 G/acre, 2nd treatment 2 days after 1st): 4.07
Injury rating, average per plot (Potato, variety Katahdin; Day 2): 4
Injury rating, average per plot (Potato, variety Katahdin; Day 3): 4.13
Injury rating, average per plot (Potato, variety Katahdin; Day 5): 4.43

CCCCCCCC(=O)O [Caprylic Acid (1%)]
Foliage Affected (%) (soybeans [14]): 25-30%
Overall Effect (soybeans [14]): 2.5

N.N.O=C(O)CCC(=O)O [ammonium succinate]
Rating of additive tested alone ([7]; footnote): Since succinic acid (or ammonium succinate) tested alone had a rating of zero, pelargonic acid (or c/c) + succinic acid (or ammonium succinate) were synergistic. The exception was: 3% pelargonic acid + 1.26% ammonium succinate
